In US9809574B2, “Isoindoline or isoquinoline compounds, a process for their preparation and pharmaceutical compositions containing them” (LES LABORATOIRES SERVIER, priority 2013, dated 2017):
Structures can show the parent of a compound that is named as a salt.

Key:
Bcl-2 protein = Bcl-2 protein (histag-Bcl-2, UniProtKB P10415) (Homo sapiens (Human), UniProt P10415); assay: Inhibition of Bcl-2 by the fluorescence polarisation technique; assay type: binding; details: fluorescence polarisation test; incubation for 2 hours; read-out: IC50 (nM) Bcl-2 FP
Text: For partial inhibitors, the percentage fluorescence polarisation inhibition for a given concentration of the test compound is indicated.

[1] = tested on: RS4; 11 leukaemia cell line; assay: In vitro cytotoxicity, Microculture Tetrazolium Assay (MTT); assay type: cell-based; details: Homo sapiens, 11 cells exposed for 48 hours
Protocol: The cytotoxicity studies were carried out on the RS4; 11 leukaemia cell line and on H146 small Cell Lung Carcinoma cell line. The cells are distributed onto microplates and exposed to the test compounds for 48 hours. The cell viability is then quantified by a colorimetric assay, the Microculture Tetrazolium Assay (Cancer Res., 1987, 47, 939-942).

Bcl-2 protein, sequence (P10415 whole entry): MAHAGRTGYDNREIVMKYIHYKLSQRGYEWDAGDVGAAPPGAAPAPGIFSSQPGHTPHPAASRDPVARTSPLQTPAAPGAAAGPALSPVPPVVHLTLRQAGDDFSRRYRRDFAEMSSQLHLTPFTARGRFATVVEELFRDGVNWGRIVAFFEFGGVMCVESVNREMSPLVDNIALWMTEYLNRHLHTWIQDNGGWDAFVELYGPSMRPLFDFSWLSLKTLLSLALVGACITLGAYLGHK

Row | Structure (SMILES) | IC50 (Bcl-2 protein) [nM] | IC50 [1] [nM]
1 | CN(C(=O)c1cc(-c2cc3c(cc2C(=O)N2Cc4ccccc4C[C@H]2CN2CCOCC2)CN(C(=O)NC(C)(C)C)C3)n2c1CCCC2)c1ccc(O)cc1 [Example 17, N-tert-Butyl-5-{1-[(4-hydroxyphenyl)(methyl)carbamoyl]-5,6,7,8-tetrahydroindolizin-3-yl}-6-[(3S)-3-(morpholin-4-ylmethyl)-1,2,3,4-tetrahydroisoquinoline-2-carbonyl]-2,3-dihydro-1H-isoindole-2-carboxamide hydrochloride] | 91 | 1760
2 | CCS(=O)(=O)N1Cc2cc(C(=O)N3Cc4ccccc4C[C@H]3CN3CCOCC3)c(-c3cc(C(=O)N(C)c4ccc(O)cc4)c4n3CCCC4)cc2C1 [Example 18, 3-[2-(Ethanesulfonyl)-6-[(3S)-3-(morpholin-4-ylmethyl)-1,2,3,4-tetrahydroisoquinoline-2-carbonyl]-2,3-dihydro-1H-isoindol-5-yl]-N-(4-hydroxyphenyl)-N-methyl-5,6,7,8-tetrahydroindolizine-1-carboxamide hydrochloride] | 38 | 1290
3 | C[C@@H]1Cc2ccccc2CN1C(=O)c1cc2c(cc1-c1cc(C(=O)N(C)c3ccc(O)cc3)c3n1CCCC3)CN(C(=O)C1CC1)C2 [Example 20, 3-{2-Cyclopropanecarbonyl-6-[(3R)-3-methyl-1,2,3,4-tetrahydroisoquinoline-2-carbonyl]-2,3-dihydro-1H-isoindol-5-yl}-N-(4-hydroxyphenyl)-N-methyl-5,6,7,8-tetrahydroindolizine-1-carboxamide] | 20 | > 150
4 | CC(Cc1ccccc1)C(=O)N1Cc2cc(C(=O)N3Cc4ccccc4C[C@H]3C)c(-c3cc(C(=O)N(C)c4ccc(O)cc4)c4n3CCCC4)cc2C1 (stereo partly drawn) [Example 23, 3-[2-(2-Benzylpropanoyl)-6-[(3R)-3-methyl-1,2,3,4-tetrahydroisoquinoline-2-carbonyl]-2,3-dihydro-1H-isoindol-5-yl]-N-(4-hydroxyphenyl)-N-methyl-5,6,7,8-tetrahydroindolizine-1-carboxamide] | 13 | 61

Now from value to compound, other results behind:

Row | IC50 (Bcl-2 protein) [nM] | Structure (SMILES) | IC50 [1] [nM]
5 | 47 | CN(C(=O)c1cc(-c2cc3c(cc2C(=O)N2Cc4ccccc4C[C@H]2CN2CCOCC2)CN(S(=O)(=O)c2ccccc2)C3)n2c1CCCC2)c1ccc(O)cc1 [Example 19, 3-[2-(Benzenesulfonyl)-6-[(3S)-3-(morpholin-4-ylmethyl)-1,2,3,4-tetrahydroisoquinoline-2-carbonyl]-2,3-dihydro-1H-isoindol-5-yl]-N-(4-hydroxyphenyl)-N-methyl-5,6,7,8-tetrahydroindolizine-1-carboxamide hydrochloride] | 774
6 | 14 | CN(C(=O)c1cc(-c2cc3c(cc2C(=O)N2Cc4ccccc4C[C@H]2CN2CCOCC2)CN(S(=O)(=O)CCc2ccccc2)C3)n2c1CCCC2)c1ccc(O)cc1 [Example 21, N-(4-Hydroxyphenyl)-N-methyl-3-{6-[(3S)-3-(morpholin-4-ylmethyl)-1,2,3,4-tetrahydroisoquinoline-2-carbonyl]-2-(2-phenylethanesulfonyl)-2,3-dihydro-1H-isoindol-5-yl}-5,6,7,8-tetrahydroindolizine-1-carboxamide hydrochloride] | 112
7 | 70 | CN(C(=O)c1cc(-c2cc3c(cc2C(=O)N2Cc4ccccc4C[C@H]2CN2CCOCC2)CN(S(=O)(=O)c2cccnc2)C3)n2c1CCCC2)c1ccc(O)cc1 [Example 22, N-(4-Hydroxyphenyl)-N-methyl-3-{6-[(3S)-3-(morpholin-4-ylmethyl)-1,2,3,4-tetrahydroisoquinoline-2-carbonyl]-2-(pyridine-3-sulfonyl)-2,3-dihydro-1H-isoindol-5-yl}-5,6,7,8-tetrahydroindolizine-1-carboxamide hydrochloride] | > 150
